{
  "source": "patent US20140121235A1",
  "about": "“Method for Treating S6K-Overexpressing Cancers” (Rush University Medical Center, priority 2012, published 2014)",
  "key": {"[1]": {"test_system": "ribosomal protein S6^S235/S236 phosphorylation", "test": "Western blot of S6 phosphorylation in A375 cells", "type": "cell-based", "protocol": "(§1) A375 cells seeded in a 6-well plate were starved in DMEM medium containing 0.5% FBS for 2 hr and treated with the indicated concentration of A77 1726 or PLX 4720 (1 μM) for another 2 hr (A) or treated with A77 1726 (100 μM) for the indicated time (B & C). Cells were harvested and analyzed for protein phosphorylation by specific antibodies as indicated. Protein loading was monitored by stripping membrane and re-probing with antibodies against non-phosphorylated proteins. […] A375 cells seeded in a 6-well plate were starved in DMEM medium containing 05% FBS for 2 hr and treated with the indicated concentration of A77 1726 in the absence or presence of uridine (200 μM). Phosphorylated and total proteins were analyzed by Western blot as described above.\n(§2) A375 cells seeded in 6-well plates were starved in DMEM medium containing 0.5% FBS for 2 hr and then pre-treated with vehicle (0.1% dimethyl sulfoxide), LY294002 (10 μM) (A), PPP (1 μM) (B), or the inhibitors of the MAP kinase pathway (PLX4720, 1 μM; U0126, 10 μM; PD98059, 10 μM) (C) for 1 hr. Cells were then treated with A77 1726 (100 μM) or rapamycin (20 nM) as indicated for 2 hr. Cells were harvested and analyzed for protein phosphorylation by specific antibodies as indicated. Protein loading was monitored by stripping membrane and re-probing with antibodies against non-phosphorylated proteins.\n(§3) Cells grown in 6-well plates were harvested and lysed in NP-40 lysis buffer (50 mM Tris-HCI (pH 8.0), 150 mM NaCl, 1% NP-40, 5 mM EDTA, 10 μg/ml aprotinin, 10 μg/ml leupeptin, and 1 mM phenylmethylsulfonyl fluoride). After incubation on ice for 30 min, the cell lysates were prepared by spinning down at 4° C., 15,000 rpm for 15 min. After electrophoresis and transfer to Immobolin membrane, proteins of interest were probed with their specific antibodies, followed by horseradish peroxidase-conjugated goat anti-rabbit IgG and SuperSignal Western Pico enhanced chemiluminoscence substrate (Pierce Chemical Co., Rockford, Ill.).\n(§4) The PI-3 and MAP kinase pathways play an important role in cell proliferation, differentiation, and cell cycle progress. Multiple genes in these two pathways are frequently mutated and have a commanding role in driving tumorigenesis and tumor cell proliferation (2; 3). […] Here we tested whether A77 1726 affected the activation of MAP and PI-3 kinase pathways. A375 cells grown in 6-well plates were starved in the media containing 0.5% FBS for 2 hr and then treated with the indicated concentration of A77 1726. […] We next explored the effect of A77 1726 in phosphorylation of the molecules in the PI-3 kinase pathway."}, "[2]": {"test_system": "AKT^S473 and S6K1^T389 phosphorylation", "test": "Western blot of PI-3 kinase pathway phosphorylation in A375 cells", "type": "cell-based", "settings": "A375 cells, dose-dependent", "protocol": "as §1, §2, §3, §4"}, "A375 cells": {"test_system": "A375 cells", "test": "Cell proliferation assay (ATP-based Cell-Glo)", "settings": "for inhibitory effect of A77 1726 blocked by uridine: exogenous uridine", "protocol": "A375 cells were seeded in 96-well plates (2000 cells/well) and incubated the indicated concentrations of A77 1726 for 72 hr in the absence or presence of various concentrations PLX4720 (A, C) with or without uridine (200 μM) (B, D). Cell proliferation was analyzed by an ATP-based Cell-Glo assay. One representative of three experiments with similar results was shown. *p<0.01.\nA375 cells were grown in complete RPMI 1640 medium supplemented with 10% fetal bovine serum. The cells were seeded in 96-well plates at the density of 2,000/well in the absence or presence of various concentrations of A77 1726, PLX4720, or uridine (200 μM). After incubation for 72 hr, cell proliferation was monitored by using an ATP-based Cell-Glo assay (Promegan, Madison, Wis.) following the manufacturer's instruction."}, "[3]": {"biological_target": "recombinant p70 S6 kinase (S6K1) (Homo sapiens, UniProt P23443)", "sequence (P23443 whole entry)": "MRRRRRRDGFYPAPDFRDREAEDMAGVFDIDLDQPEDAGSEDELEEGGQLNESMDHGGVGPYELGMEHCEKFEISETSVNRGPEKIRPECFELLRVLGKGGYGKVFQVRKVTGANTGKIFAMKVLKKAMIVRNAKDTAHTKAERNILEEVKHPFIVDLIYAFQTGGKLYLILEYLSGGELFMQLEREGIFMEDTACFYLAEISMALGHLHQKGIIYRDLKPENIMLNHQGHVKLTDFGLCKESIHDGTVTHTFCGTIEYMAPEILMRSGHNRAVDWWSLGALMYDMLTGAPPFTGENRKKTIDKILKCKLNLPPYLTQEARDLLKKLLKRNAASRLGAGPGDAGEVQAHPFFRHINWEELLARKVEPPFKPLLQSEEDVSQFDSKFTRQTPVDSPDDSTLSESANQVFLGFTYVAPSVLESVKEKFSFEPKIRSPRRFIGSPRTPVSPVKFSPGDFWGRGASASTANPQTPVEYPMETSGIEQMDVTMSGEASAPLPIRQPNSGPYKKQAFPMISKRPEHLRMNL", "test": "In vitro p70 S6 kinase assay (ADP-Glo Kinase assay system)", "type": "biochemical", "settings": "30 min pre-incubation, ATP 10 μM, 1 hr, read-out: IC50, inhibition of recombinant S6K1 activity", "protocol": "Leflunomide and A77 1726 diluted at the final concentrations as indicated were pre-mixed with S6K1 for 30 min, followed by the addition of peptide substrate of S6K1 and incubation for 1 hr. S6K1 activity was measured by using a ADP-Glo™ system. The experiment was repeated with similar results. The data represents the mean±standard deviation from one experiment in triplicate.\nThe ability of lefiunomide and A77 1726 to inhibit p70 S6 kinase assay was conducted by using an ADP-Glo™ Kinase assay system (Promega Corporation, Madison, Wis.). Briefly, A77 1726 or leflunomide diluted in the kinase buffer was mixed with recombinant p70 S6 kinase (100 ng/reaction) and incubated at room temperature for 30 min. Peptide substrate of p70 S6 kinase (5 μg/reaction) and ATP (10 μM, final concentration) was added, with a total final volume of 25 μl. After incubation for 1 hr, ADP-Glo™ reagent (25 μl) was added to each reaction. After incubation for 40 min, kinase detection substrate (luciferin) (50 μl/reaction) was added. After incubation fix 30 min, luciferase activity was measured by reading in a luminescence plate reader. The experiment was conducted in triplicate and repeated once with similar results. The data from one experiment were presented as mean±standard deviation."}},
  "data": [
    {"smiles": "C/C(O)=C(\\C#N)C(=O)Nc1ccc(C(F)(F)F)cc1", "note": "[A77 1726]", "values": [
      {"measurement": "effect on S6^S235/S236 phosphorylation", "setting": "[1]; A375 cells, A77 1726 dose-dependent or 100 μM, rapamycin 20 nM, PPP 1 μM", "value": "inhibited"},
      {"measurement": "IC50", "setting": "[1]; Homo sapiens, A-375, read-out: IC50 to inhibit S6 phosphorylation in cell culture", "value": "50 to 75", "unit": "µM"},
      {"measurement": "effect on AKT^S473 and S6K1^T389 phosphorylation", "setting": "[2]", "value": "strongly induced"},
      {"measurement": "inhibitory effect of A77 1726 blocked by uridine", "setting": "A375 cells; A77 1726 at 200 μM", "value": "about 20%"},
      {"measurement": "inhibitory effect of A77 1726 blocked by uridine", "setting": "A375 cells; A77 1726 at 50 or 100 μM", "value": 80, "unit": "%"},
      {"measurement": "IC50", "setting": "A375 cells; Homo sapiens, A-375, 72 hr, read-out: IC50, inhibition of A375 proliferation", "value": "~65", "unit": "µM"},
      {"measurement": "IC50", "setting": "[3]", "value": "~80", "unit": "µM"}
    ]}
  ]
}
